Test results reported in PubChem BioAssay (NCI).
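The compound was tested at five concentrations on cells cultured in 96-well plates, with a 48-hour exposure period. At the GI50, growth is halved. TGI: concentration producing complete growth inhibition.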

Tests used:
Assay in all cases: NCI anticancer screen, dose series, 48 h
SK-OV-3 ovarian = system: SK-OV-3 ovarian
ACHN renal = system: ACHN renal
HCT-15 colon = system: HCT-15 colon
IGROV1 ovarian = system: IGROV1 ovarian
HCC-2998 colon = system: HCC-2998 colon
BT-549 breast = system: BT-549 breast
SF-295 CNS = system: SF-295 CNS
UACC-62 melanoma = system: UACC-62 melanoma
PC-3 prostate = system: PC-3 prostate
SF-268 CNS = system: SF-268 CNS
SNB-19 CNS = system: SNB-19 CNS
HOP-92 NSCLC = system: HOP-92 NSCLC
OVCAR-5 ovarian = system: OVCAR-5 ovarian
OVCAR-8 ovarian = system: OVCAR-8 ovarian
KM12 colon = system: KM12 colon
SK-MEL-2 melanoma = system: SK-MEL-2 melanoma
HL-60(TB) leukemia = system: HL-60(TB) leukemia
NCI-H226 lung = system: NCI-H226 lung
OVCAR-3 ovarian = system: OVCAR-3 ovarian
SK-MEL-28 melanoma = system: SK-MEL-28 melanoma
UO-31 renal = system: UO-31 renal
MDA-MB-231 breast = system: MDA-MB-231 breast
HOP-62 NSCLC = system: HOP-62 NSCLC
UACC-257 melanoma = system: UACC-257 melanoma
RXF 393 renal = system: RXF 393 renal
MALME-3M melanoma = system: MALME-3M melanoma
MCF7 breast = system: MCF7 breast
RPMI-8226 leukemia = system: RPMI-8226 leukemia
EKVX NSCLC = system: EKVX NSCLC
MOLT-4 leukemia = system: MOLT-4 leukemia
CCRF-CEM leukemia = system: CCRF-CEM leukemia
HCT-116 colon = system: HCT-116 colon
U251 CNS = system: U251 CNS
MDA-MB-435 = system: MDA-MB-435
COLO 205 colon = system: COLO 205 colon
786-0 renal = system: 786-0 renal
SK-MEL-5 melanoma = system: SK-MEL-5 melanoma
K-562 leukemia = system: K-562 leukemia
HS 578T breast = system: HS 578T breast
SW-620 colon = system: SW-620 colon
LOX IMVI melanoma = system: LOX IMVI melanoma
A549 NSCLC = system: A549 NSCLC
DU-145 prostate = system: DU-145 prostate
SF-539 CNS = system: SF-539 CNS
NCI/ADR-RES ovarian = system: NCI/ADR-RES ovarian
TK-10 renal = system: TK-10 renal
NCI-H522 lung = system: NCI-H522 lung
M14 melanoma = system: M14 melanoma
MDA-MB-468 breast = system: MDA-MB-468 breast
OVCAR-4 ovarian = system: OVCAR-4 ovarian
CAKI-1 renal = system: CAKI-1 renal
SNB-75 CNS = system: SNB-75 CNS
SN12C renal = system: SN12C renal
NCI-H23 lung = system: NCI-H23 lung
A498 renal = system: A498 renal

**Q.** What does the source list for `O=C(NN1C(=O)/C(=C/C=C/c2ccc([N+](=O)[O-])o2)SC1=S)c1ccc(O)cc1`?
**A.** GI50 (SK-OV-3 ovarian): 2490 nM; TGI (SK-OV-3 ovarian): 5960 nM; GI50 (ACHN renal): 1770 nM; TGI (ACHN renal): 3220 nM; GI50 (HCT-15 colon): 212 nM; TGI (HCT-15 colon): 499 nM; GI50 (IGROV1 ovarian): 1460 nM; TGI (IGROV1 ovarian): 2820 nM; GI50 (HCC-2998 colon): 1780 nM; TGI (HCC-2998 colon): 3320 nM; GI50 (BT-549 breast): 1360 nM; TGI (BT-549 breast): 2790 nM; GI50 (SF-295 CNS): 2040 nM; TGI (SF-295 CNS): 4590 nM; GI50 (UACC-62 melanoma): 1050 nM; TGI (UACC-62 melanoma): 2260 nM; GI50 (PC-3 prostate): 2370 nM; TGI (PC-3 prostate): 7230 nM; GI50 (SF-268 CNS): 1970 nM; TGI (SF-268 CNS): 4340 nM; GI50 (SNB-19 CNS): 1920 nM; TGI (SNB-19 CNS): 3900 nM; GI50 (HOP-92 NSCLC): 1630 nM; TGI (HOP-92 NSCLC): 3690 nM; GI50 (OVCAR-5 ovarian): 1800 nM; TGI (OVCAR-5 ovarian): 3530 nM; GI50 (OVCAR-8 ovarian): 1300 nM; TGI (OVCAR-8 ovarian): 3400 nM; GI50 (KM12 colon): 1930 nM; TGI (KM12 colon): 4290 nM; GI50 (SK-MEL-2 melanoma): 1420 nM; TGI (SK-MEL-2 melanoma): 2990 nM; GI50 (HL-60(TB) leukemia): > 100000 nM; TGI (HL-60(TB) leukemia): > 100000 nM; GI50 (NCI-H226 lung): 690 nM; TGI (NCI-H226 lung): 2280 nM; GI50 (OVCAR-3 ovarian): 1680 nM; TGI (OVCAR-3 ovarian): 3140 nM; GI50 (SK-MEL-28 melanoma): 1670 nM; TGI (SK-MEL-28 melanoma): 3100 nM; GI50 (UO-31 renal): 1510 nM; TGI (UO-31 renal): 2910 nM; GI50 (MDA-MB-231 breast): 399 nM; TGI (MDA-MB-231 breast): 1420 nM; GI50 (HOP-62 NSCLC): 1890 nM; TGI (HOP-62 NSCLC): 3600 nM; GI50 (UACC-257 melanoma): 1690 nM; TGI (UACC-257 melanoma): 3500 nM; GI50 (RXF 393 renal): 1560 nM; TGI (RXF 393 renal): 2990 nM; GI50 (MALME-3M melanoma): 246 nM; TGI (MALME-3M melanoma): 558 nM; GI50 (MCF7 breast): 1410 nM; TGI (MCF7 breast): 3190 nM; GI50 (RPMI-8226 leukemia): 713 nM; TGI (RPMI-8226 leukemia): 5340 nM; GI50 (EKVX NSCLC): 1570 nM; TGI (EKVX NSCLC): 3190 nM; GI50 (MOLT-4 leukemia): > 100000 nM; TGI (MOLT-4 leukemia): > 100000 nM; GI50 (CCRF-CEM leukemia): 195 nM; TGI (CCRF-CEM leukemia): 1810 nM; GI50 (HCT-116 colon): 382 nM; TGI (HCT-116 colon): 1570 nM; GI50 (U251 CNS): 1750 nM; TGI (U251 CNS): 3520 nM; GI50 (MDA-MB-435): 1130 nM; TGI (MDA-MB-435): 2510 nM; GI50 (COLO 205 colon): 1730 nM; TGI (COLO 205 colon): 3350 nM; GI50 (786-0 renal): 1780 nM; TGI (786-0 renal): 3270 nM; GI50 (SK-MEL-5 melanoma): 1120 nM; TGI (SK-MEL-5 melanoma): 2340 nM; GI50 (K-562 leukemia): > 100000 nM; TGI (K-562 leukemia): > 100000 nM; GI50 (HS 578T breast): 2520 nM; TGI (HS 578T breast): 8640 nM; GI50 (SW-620 colon): 307 nM; TGI (SW-620 colon): 996 nM; GI50 (LOX IMVI melanoma): 185 nM; TGI (LOX IMVI melanoma): 358 nM; GI50 (A549 NSCLC): 3780 nM; TGI (A549 NSCLC): 16300 nM; GI50 (DU-145 prostate): 2350 nM; TGI (DU-145 prostate): 5790 nM; GI50 (SF-539 CNS): 1660 nM; TGI (SF-539 CNS): 3120 nM; GI50 (NCI/ADR-RES ovarian): 2200 nM; TGI (NCI/ADR-RES ovarian): 5210 nM; GI50 (TK-10 renal): 1830 nM; TGI (TK-10 renal): 3510 nM; GI50 (NCI-H522 lung): 217 nM; TGI (NCI-H522 lung): 498 nM; GI50 (M14 melanoma): 316 nM; TGI (M14 melanoma): 1350 nM; GI50 (MDA-MB-468 breast): 1720 nM; TGI (MDA-MB-468 breast): 3580 nM; GI50 (OVCAR-4 ovarian): 1860 nM; TGI (OVCAR-4 ovarian): 4220 nM; GI50 (CAKI-1 renal): 1500 nM; TGI (CAKI-1 renal): 2900 nM; GI50 (SNB-75 CNS): 1310 nM; TGI (SNB-75 CNS): 4380 nM; GI50 (SN12C renal): 344 nM; TGI (SN12C renal): 1630 nM; GI50 (NCI-H23 lung): 1270 nM; TGI (NCI-H23 lung): 2690 nM; GI50 (A498 renal): 18800 nM; TGI (A498 renal): 32800 nM
